Measurements as given in patent US7150967B2, “Fluorescent tags for amino acid and nucleic acid analysis” (University of Medicine & Dentistry of New Jersey, priority 2002, dated 2006).

How the values were obtained:
[1] = target: bovine serum albumin (BSA) (Bos taurus, UniProt P02769); test: Reaction with the thiol containing species bovine serum albumin, monitored by ultraviolet absorbance spectra; conditions: BSA 0.1 μg, 2.5 μmol compound, 30 minutes at 37° C.
Method: BSA (0.1 μg) was reacted with 2.5 μmol iodomercurio-H2DMP (IM-H2DMP) for 30 minutes at 37° C.

[2] = target: BSA (Bos taurus, UniProt P02769); test: Detection of a protein on a 10% PAGE gel via formation of a fluorescent reaction product; set-up: species or system bovine; conditions: BSA 150 μg, 1.5 nmol compound, 30 minutes at 37° C.
Method: In these experiments, BSA (150 μg) was reacted with the mercurimethyl-dihydropsoralen 3-cyanomercurio-H2DMP (1.5 nmol) for 30 minutes at 37° C. The products were then run on a 10% PAGE gel to separate any reaction product from unreacted psoralen. The fluorescent BSA-mercurimethyl-dihydropsoralen reaction product was […].

Sequence of bovine serum albumin (BSA) (P02769 25-607): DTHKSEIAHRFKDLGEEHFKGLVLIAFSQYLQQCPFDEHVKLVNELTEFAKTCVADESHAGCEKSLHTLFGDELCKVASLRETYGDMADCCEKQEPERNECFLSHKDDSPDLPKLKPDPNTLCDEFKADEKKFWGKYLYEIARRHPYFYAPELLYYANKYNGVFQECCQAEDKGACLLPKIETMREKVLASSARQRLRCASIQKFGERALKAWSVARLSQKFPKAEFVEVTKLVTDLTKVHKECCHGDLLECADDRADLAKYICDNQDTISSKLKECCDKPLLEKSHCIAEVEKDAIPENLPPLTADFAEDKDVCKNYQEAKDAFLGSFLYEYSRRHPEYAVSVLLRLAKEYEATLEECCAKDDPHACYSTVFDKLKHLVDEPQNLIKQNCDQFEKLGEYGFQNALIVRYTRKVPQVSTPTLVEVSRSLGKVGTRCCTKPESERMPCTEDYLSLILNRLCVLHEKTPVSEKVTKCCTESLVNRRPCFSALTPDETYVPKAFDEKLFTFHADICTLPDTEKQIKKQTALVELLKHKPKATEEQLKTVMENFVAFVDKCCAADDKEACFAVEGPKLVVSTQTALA

Structure (SMILES) | change in ultraviolet absorbance spectra (formation of new reaction product) [1] | ability to detect a protein on a gel via fluorescent reaction product [2]
Cc1cc(=O)oc2c(C)c3c(cc12)CC([CH2][Hg][I])O3 (centres unmarked) [Compound P1, iodomercurio-H2DMP] | change in the ultraviolet absorbance spectra indicative of formation of a new reaction product was observed | 
CC(=O)[O][Hg][CH2]C1Cc2cc3c(C)c(C#N)c(=O)oc3c(C)c2O1 (centres unmarked) [Compound P6, 3-cyano-acetylmercurio-H2DMP] |  | demonstrated
